Entries after “also recorded” stand apart in the source; their conditions may differ.
Columns and labels:
Format in all cases: binding
ELIC-α1^W246LGABAAR [1] = target: T1, ELIC-α1^W246LGABAAR (Homo sapiens, UniProt P14867, W273L); assay: biochemical
Description: ELIC-α1GABAAR was expressed and purified according to a previously published protocol ([Q. Chen et al., 2018]). The purified protein was aliquoted and stored at −80°C. Mutagenesis was performed as described in previous reports ([Kinde et al., 2016]) by oligonucleotide-directed mutagenesis using Phu polymerase (Thermo Fisher Scientific, Waltham, MA, USA) verified by sequencing. ELIC-α1GABAAR was expressed in OverExpress™ C43(D3) E. coli, derived from Rosetta™(DE3) cells under double selection with kanamycin and chloramphenicol for ELIC-α1GABAAR.
One hundred microlitres of purified ELIC-α1GABAAR (0.3 μM in Buffer A + 0.015% DDM) was transferred into a 50-μl window quartz cuvette (Starna Cells, Atascadero, CA, USA), which was placed in a cuvette holder maintained at 4°C. […] Two microlitres of NaI (AK Scientific, Union City, CA, USA; 5-M stock prepared in 0.1-Mm sodium hydrosulfite [Sigma-Aldrich, St. Louis, MO, USA]) was added to the protein (final concentration = 100 mM) and incubated for 10 min to reduce the fluorescence emission from hydrophilic tryptophans. To measure the concentration–dependent effects of NS on tryptophan fluorescence, 1 μl of NS from each 100× stock solution was sequentially added to the NaI-equilibrated protein and thoroughly mixed to achieve concentrations from 0.01 to 50 μM. […]

ELIC-α1GABAAR [2] = target: T2, ELIC-α1GABAAR (Homo sapiens, UniProt P14867)
Description: (§1) One hundred microlitres of ELIC-α1GABAAR (0.3 μM) was transferred into a 50-μl window quartz cuvette maintained at 4°C, and NaI was added to the protein sample to a final concentration of 100 mM and incubated for 10 min. MQ290 was then added at a concentration of 3 μM for 3α-OH NS inhibition curves or 1 μM for 3β-OH NS inhibition curves and incubated for 30 min. One-microlitre aliquots of 3α-OH and 3β-OH NS from their corresponding stock solutions (prepared in Buffer A + 0.015% DDM) were added to achieve concentrations between 0.01 and 30 μM. The background emission spectra of ligands alone were obtained for each ligand concentration in the absence of protein and were subtracted from the protein-ligand emission spectra to yield background subtracted data. The MQ290 FRET spectra for different ligand concentrations were estimated using the method described above. The 370-nm intensities of the FRET spectra were plotted against ligand concentration and fitted to a four-parameter logistic curve to obtain IC50 data (GraphPad Software version 9.4.0, San Diego, CA). Ki values were calculated using the relationship: Ki=IC50/1+LT/Kd
where LT is the concentration of MQ290 and Kd was determined from the MQ290 binding curve.

ELIC-α1^W246LGABAAR [3] = target: T1, ELIC-α1^W246LGABAAR; assay: Inhibition of MQ290 FRET by NS in W246L receptors; conditions: 30 μM NS; MQ290 1 μM
Description: as §1

ELIC-α1GABAAR [4] = target: T2, ELIC-α1GABAAR; assay: KK200 photolabelling competition, middle-down MS; conditions: 3 μM KK200, 30 μM competitor
Description: The synthesis of the NS photolabelling reagent KK200 is detailed in previous reports ([W. W. L. Cheng et al., 2018]; [Jiang et al., 2016]). […] The samples were then irradiated in a quartz cuvette for 5 min, using a photoreactor emitting light at >320 nm ([Germann et al., 2021]). Sample preparation for tryptic digestion and analysis by LC–MS was performed as previously described ([Sugasawa et al., 2019]). Peptides were separated on a home-packed PLRP-S (Agilent, Santa Clara, CA, USA) column (10 cm × 75 μm, 300 Å) using a 135-min gradient from 10% to 90% acetonitrile and introduced to an Orbitrap-Elite mass spectrometer (Thermo Fisher Scientific, Waltham, MA, USA; RRID:SCR_020548) at 800 nl·min^−1 with a nanospray source. MS acquisition was set as an MS1 Orbitrap scan (resolution of 60,000) followed by top 20 MS2 Orbitrap scans (resolution of 15,000) using data-dependent acquisition and exclusion of singly charged precursors. Fragmentation was performed using high-energy dissociation with normalized energy of 35%. Analysis of data sets was performed using Xcalibur (Thermo Fisher Scientific, Waltham, MA, USA; RRID: SCR_014593) to manually search for TM1, TM2, TM3 or TM4 tryptic peptides with or without NS photolabelling modifications. Photolabelling efficiency was estimated by generating extracted chromatograms of unlabelled and labelled peptides, determining the area under the curve, and calculating the (area of labelled peptide/(area of unlabelled + area of labelled peptide). MS2 spectra of photolabelled TMD peptides were analysed by manual assignment of fragment ions with and without photolabelling modification.

T2 sequence (P14867 other isoform, or with tags, fused parts or gaps): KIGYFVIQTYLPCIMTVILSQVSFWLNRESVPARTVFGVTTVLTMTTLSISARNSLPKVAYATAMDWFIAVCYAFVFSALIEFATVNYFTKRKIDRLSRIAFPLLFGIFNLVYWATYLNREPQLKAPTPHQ
T2 sequence (P0C7B7 1-198, further chain): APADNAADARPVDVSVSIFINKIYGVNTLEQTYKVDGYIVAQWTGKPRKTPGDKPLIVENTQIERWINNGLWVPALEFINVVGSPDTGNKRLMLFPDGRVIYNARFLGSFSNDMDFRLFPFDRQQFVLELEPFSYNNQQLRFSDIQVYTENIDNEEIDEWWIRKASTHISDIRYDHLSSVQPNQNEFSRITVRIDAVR
T1 sequence (P14867 other isoform, or with tags, fused parts or gaps W273L): as the sequence (P14867 other isoform, or with tags, fused parts or gaps) above, with W25L counted along it
T1 sequence (P0C7B7 1-198, further chain): as the sequence (P0C7B7 1-198, further chain) above

## CC(=O)[C@H]1CC[C@H]2[C@@H]3CC[C@H]4C[C@@H](O)CC[C@]4(C)[C@H]3CC[C@]12C [Epi-AlloP, epi-allopregnanolone]
ELIC-α1^W246LGABAAR [1]
  IC50: 340 ± 130 nM
ELIC-α1GABAAR [2]; 3β-OH NS, MQ290 1 μM
  Hill slope: −0.68 ± 0.45
ELIC-α1GABAAR [2]; MQ290 binding curves with 3×Kd and 30 μM NS
  mechanism of inhibition of MQ290 binding: allosteric mechanism of inhibition
ELIC-α1^W246LGABAAR [3]
  inhibition of remaining MQ290 FRET signal in W246L: reduced by neither
ELIC-α1GABAAR [4]
  prevention of KK200 photolabelling of TM3 (Y309): not significantly different than control; also recorded: did not

— publication PMC11585924, “Direct measurements of neurosteroid binding to specific sites on GABAA receptors” (British journal of pharmacology, 2024)
